Activity calls are given as the source filed them. The rule behind the calls is not given here.
How the values were obtained:
[1] = molecular target: Estrogen receptor beta (Homo sapiens) (UniProt Q92731); assay: Transactivation of human ER-beta transfected in rat UMR106 cells at 10^-14 to 10^-6 M after 24 hrs by dual luciferase reporter gene assay; format: cell-based
[2] = tested on: UMR106; assay: Induction of rat UMR106 cell proliferation after 24 hrs by MTS assay; format: functional, cell-based
[3] = Induction of rat UMR106 cell proliferation assessed as increase in cell number at 10^-10 to 10^-8 M after 24 hrs by MTS assay relative to control; format: functional
[4] = Induction of rat UMR106 cell differentiation at 10^-6 M after 24 hrs by ALP assay relative to control; format: functional
[5] = tested on: UMR106; assay: Induction of rat UMR106 cell proliferation after 24 hrs by MTS assay in presence of estrogen receptor antagonist ICI 182,780; format: functional, cell-based
[6] = (§1) Induction of rat UMR106 cell differentiation at 10^-8 M after 24 hrs by ALP assay relative to control; format: functional
[7] = Induction of rat UMR106 cell differentiation at 10^-10 M after 24 hrs by ALP assay relative to control; format: functional
[8] = tested on: UMR106; assay: Induction of rat UMR106 cell differentiation after 24 hrs by ALP assay in presence of estrogen receptor antagonist ICI 182,780; format: functional, cell-based
[9] = tested on: UMR106; assay: Induction of rat UMR106 cell proliferation assessed as increase in cell number at 10^-8 M after 24 hrs by MTS assay; format: functional, cell-based
[10] = tested on: UMR106; assay: as §1; format: functional
[11] = tested on: UMR106; assay: Induction of rat UMR106 cell proliferation at 10^-8 M after 24 hrs by MTS assay in presence of estrogen receptor antagonist ICI 182,780; format: functional, cell-based

Chain of Estrogen receptor beta (Homo sapiens) (Q92731 whole entry): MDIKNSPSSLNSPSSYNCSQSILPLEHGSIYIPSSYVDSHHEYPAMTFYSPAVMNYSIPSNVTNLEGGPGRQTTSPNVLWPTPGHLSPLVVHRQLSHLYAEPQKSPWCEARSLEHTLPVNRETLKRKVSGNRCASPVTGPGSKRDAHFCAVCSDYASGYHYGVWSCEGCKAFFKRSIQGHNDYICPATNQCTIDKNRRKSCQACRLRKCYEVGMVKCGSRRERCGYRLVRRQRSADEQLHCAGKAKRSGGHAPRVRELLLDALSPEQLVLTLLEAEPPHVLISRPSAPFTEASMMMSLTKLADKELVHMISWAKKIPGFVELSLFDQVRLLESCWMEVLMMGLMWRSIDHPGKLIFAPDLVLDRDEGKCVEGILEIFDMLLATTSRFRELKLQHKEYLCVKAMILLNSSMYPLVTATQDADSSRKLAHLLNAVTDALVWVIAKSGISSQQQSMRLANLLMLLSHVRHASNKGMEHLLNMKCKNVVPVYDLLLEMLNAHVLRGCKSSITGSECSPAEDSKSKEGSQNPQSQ

| Activity [1] | Compound | Activity [2] | fold change (FC) [3] | Activity [4] | Activity [5] | Activity [6] | Activity [7] | Activity [8] | Activity [9] | Activity [10] | Activity [11] |
| --- | --- | --- | --- | --- | --- | --- | --- | --- | --- | --- | --- |
| inactive | O=C(O)C[C@H]1c2c(O)cc(O)cc2O[C@H](c2ccc(O)cc2)[C@@H]1O | Dose-dependent effect | 1.4 | 18% | inactive | 14% | 18% | Active | – | – | – |
| – | C[C@]12CC[C@@H]3c4ccc(O)cc4CC[C@H]3[C@@H]1CC[C@@H]2O | Dose-dependent effect | – | – | – | – | – | Active | Active | Active | inactive |
| inactive | O=C1C[C@H]2c3c(O)cc(O)cc3O[C@H](c3ccc(O)cc3)[C@H]2O1 | Dose-dependent effect | – | – | inactive | – | 10% | Active | – | – | – |

Source: ChEMBL document CHEMBL3217748, “Chemical synthesis and biological study of 4-carboxymethyl-epiafzelechin acid, an osteoprotective compound from the rhizomes of Drynaria fortunei” (2012)
